From ChEMBL document CHEMBL1201861, “Genomics of Drug Sensitity in Cancer screening data, Wellcome Trust Sanger Institute”

System: Calu-6;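 further: growth of human Calu-6 cells, read out by a cell viability assay, IC50 marking inhibition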
Assay: cells
Format: functional, cell-based, Homo sapiens
Conditions: Homo sapiens, Calu-6
Description: SANGER: Inhibition of human Calu-6 cell growth in a cell viability assay.

SMILES	IC50 [µM]
CCN(CC)CCNC(=O)c1c(C)[nH]c(/C=C2\C(=O)Nc3ccc(F)cc32)c1C [SUNITINIB]	> 8

System: D-247MG
Assay: cells
Format: functional, cell-based, Homo sapiens
Conditions: Homo sapiens, D-247MG
Description: SANGER: Inhibition of human D-247MG cell growth in a cell viability assay.

SMILES	IC50 [µM]
CCN(CC)CCNC(=O)c1c(C)[nH]c(/C=C2\C(=O)Nc3ccc(F)cc32)c1C [SUNITINIB]	> 8

System: D-263MG
Assay: cells
Format: functional, cell-based, Homo sapiens
Conditions: Homo sapiens, D-263MG
Description: SANGER: Inhibition of human D-263MG cell growth in a cell viability assay.

SMILES	IC50 [µM]
CCN(CC)CCNC(=O)c1c(C)[nH]c(/C=C2\C(=O)Nc3ccc(F)cc32)c1C [SUNITINIB]	> 8

System: DB
Assay: cells
Format: functional, cell-based, Homo sapiens
Conditions: Homo sapiens, DB
Description: SANGER: Inhibition of human DB cell growth in a cell viability assay.

SMILES	IC50 [µM]
CCN(CC)CCNC(=O)c1c(C)[nH]c(/C=C2\C(=O)Nc3ccc(F)cc32)c1C [SUNITINIB]	> 8

System: DMS-79;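 further: growth inhibition measured with a cell viability assay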
Assay: cells
Format: functional, cell-based, Homo sapiens
Conditions: Homo sapiens, DMS-79
Description: SANGER: Inhibition of human DMS-79 cell growth in a cell viability assay.

SMILES	IC50 [µM]
CCN(CC)CCNC(=O)c1c(C)[nH]c(/C=C2\C(=O)Nc3ccc(F)cc32)c1C [SUNITINIB]	> 8

System: DU-4475
Assay: cells
Format: functional, cell-based, Homo sapiens
Conditions: Homo sapiens, DU-4475
Description: SANGER: Inhibition of human DU-4475 cell growth in a cell viability assay.

SMILES	IC50 [µM]
CCN(CC)CCNC(=O)c1c(C)[nH]c(/C=C2\C(=O)Nc3ccc(F)cc32)c1C [SUNITINIB]	4.37

System: EW-1;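 further: growth inhibition of the human EW-1 cell line, read out by a cell viability assay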
Assay: cells
Format: functional, cell-based, Homo sapiens
Conditions: Homo sapiens, EW-1
Description: SANGER: Inhibition of human EW-1 cell growth in a cell viability assay.

SMILES	IC50 [µM]
CCN(CC)CCNC(=O)c1c(C)[nH]c(/C=C2\C(=O)Nc3ccc(F)cc32)c1C [SUNITINIB]	4.68

System: HCC2218;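 further: cell viability assay read-out, with IC50 given as the concentration that inhibits growth of the cell line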
Assay: cells
Format: functional, cell-based, Homo sapiens
Conditions: Homo sapiens, HCC2218
Description: SANGER: Inhibition of human HCC2218 cell growth in a cell viability assay.

SMILES	IC50 [µM]
CCN(CC)CCNC(=O)c1c(C)[nH]c(/C=C2\C(=O)Nc3ccc(F)cc32)c1C [SUNITINIB]	> 8

System: HEL;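 further: growth inhibition of HEL cells, read out with a cell viability assay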
Assay: cells
Format: functional, cell-based, Homo sapiens
Conditions: Homo sapiens, HEL
Description: SANGER: Inhibition of human HEL cell growth in a cell viability assay.

SMILES	IC50 [µM]
CCN(CC)CCNC(=O)c1c(C)[nH]c(/C=C2\C(=O)Nc3ccc(F)cc32)c1C [SUNITINIB]	3.48

System: HT
Assay: cells
Format: functional, cell-based, Homo sapiens
Conditions: Homo sapiens, HT
Description: SANGER: Inhibition of human HT cell growth in a cell viability assay.

SMILES	IC50 [µM]
CCN(CC)CCNC(=O)c1c(C)[nH]c(/C=C2\C(=O)Nc3ccc(F)cc32)c1C [SUNITINIB]	> 8

System: HT-144
Assay: cells
Format: functional, cell-based, Homo sapiens
Conditions: Homo sapiens, HT-144
Description: SANGER: Inhibition of human HT-144 cell growth in a cell viability assay.

SMILES	IC50 [µM]
CCN(CC)CCNC(=O)c1c(C)[nH]c(/C=C2\C(=O)Nc3ccc(F)cc32)c1C [SUNITINIB]	> 8

System: HuTu80;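 further: growth inhibition of HuTu80 human cells, determined with a cell viability readout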
Assay: cells
Format: functional, cell-based, Homo sapiens, HUTU-80
Conditions: Homo sapiens, HuTu80
Description: SANGER: Inhibition of human HUTU-80 cell growth in a cell viability assay.

SMILES	IC50 [µM]
CCN(CC)CCNC(=O)c1c(C)[nH]c(/C=C2\C(=O)Nc3ccc(F)cc32)c1C [SUNITINIB]	> 8

System: JAR;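 further: growth inhibition of human JAR cells determined with a cell viability assay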
Assay: cells
Format: functional, cell-based, Homo sapiens
Conditions: Homo sapiens, JAR
Description: SANGER: Inhibition of human JAR cell growth in a cell viability assay.

SMILES	IC50 [µM]
CCN(CC)CCNC(=O)c1c(C)[nH]c(/C=C2\C(=O)Nc3ccc(F)cc32)c1C [SUNITINIB]	3.99

System: KM12;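 further: KM12 cell growth inhibition, read out with a cell viability assay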
Assay: cells
Format: functional, cell-based, Homo sapiens
Conditions: Homo sapiens, KM12
Description: SANGER: Inhibition of human KM12 cell growth in a cell viability assay.

SMILES	IC50 [µM]
CCN(CC)CCNC(=O)c1c(C)[nH]c(/C=C2\C(=O)Nc3ccc(F)cc32)c1C [SUNITINIB]	0.35

System: LB996-RCC
Assay: cells
Format: functional, cell-based, Homo sapiens
Conditions: Homo sapiens, LB996-RCC
Description: SANGER: Inhibition of human LB996-RCC cell growth in a cell viability assay.

SMILES	IC50 [µM]
CCN(CC)CCNC(=O)c1c(C)[nH]c(/C=C2\C(=O)Nc3ccc(F)cc32)c1C [SUNITINIB]	4.12

System: LC-2-ad;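 further: growth inhibition of human LC-2-ad cells, read out with a cell viability assay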
Assay: cells
Format: functional, cell-based, Homo sapiens
Conditions: Homo sapiens, LC-2-ad
Description: SANGER: Inhibition of human LC-2-ad cell growth in a cell viability assay.

SMILES	IC50 [µM]
CCN(CC)CCNC(=O)c1c(C)[nH]c(/C=C2\C(=O)Nc3ccc(F)cc32)c1C [SUNITINIB]	1.11

System: LNCaP-Clone-FGC
Assay: cells
Format: functional, cell-based, Homo sapiens
Conditions: Homo sapiens, LNCaP-Clone-FGC
Description: SANGER: Inhibition of human LNCaP-Clone-FGC cell growth in a cell viability assay.

SMILES	IC50 [µM]
CCN(CC)CCNC(=O)c1c(C)[nH]c(/C=C2\C(=O)Nc3ccc(F)cc32)c1C [SUNITINIB]	> 8

System: MZ1-PC;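 further: cell viability assay measuring growth inhibition of human MZ1-PC cells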
Assay: cells
Format: functional, cell-based, Homo sapiens
Conditions: Homo sapiens, MZ1-PC
Description: SANGER: Inhibition of human MZ1-PC cell growth in a cell viability assay.

SMILES	IC50 [µM]
CCN(CC)CCNC(=O)c1c(C)[nH]c(/C=C2\C(=O)Nc3ccc(F)cc32)c1C [SUNITINIB]	7.3

System: MZ7-mel;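 further: growth inhibition of human MZ7-mel cells, measured by a cell viability assay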
Assay: cells
Format: functional, cell-based, Homo sapiens
Conditions: Homo sapiens, MZ7-mel
Description: SANGER: Inhibition of human MZ7-mel cell growth in a cell viability assay.

SMILES	IC50 [µM]
CCN(CC)CCNC(=O)c1c(C)[nH]c(/C=C2\C(=O)Nc3ccc(F)cc32)c1C [SUNITINIB]	> 8

System: NB10;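 further: growth inhibition of NB10 cells, read out by a cell viability assay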
Assay: cells
Format: functional, cell-based, Homo sapiens
Conditions: Homo sapiens, NB10
Description: SANGER: Inhibition of human NB10 cell growth in a cell viability assay.

SMILES	IC50 [µM]
CCN(CC)CCNC(=O)c1c(C)[nH]c(/C=C2\C(=O)Nc3ccc(F)cc32)c1C [SUNITINIB]	> 8

System: NB5;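 further: growth inhibition of NB5 cells, read out as cell viability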
Assay: cells
Format: functional, cell-based, Homo sapiens
Conditions: Homo sapiens, NB5
Description: SANGER: Inhibition of human NB5 cell growth in a cell viability assay.

SMILES	IC50 [µM]
CCN(CC)CCNC(=O)c1c(C)[nH]c(/C=C2\C(=O)Nc3ccc(F)cc32)c1C [SUNITINIB]	> 8

System: NCI-H1092;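 further: cell growth inhibition measured with a cell viability assay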
Assay: cells
Format: functional, cell-based, Homo sapiens
Conditions: Homo sapiens, NCI-H1092
Description: SANGER: Inhibition of human NCI-H1092 cell growth in a cell viability assay.

SMILES	IC50 [µM]
CCN(CC)CCNC(=O)c1c(C)[nH]c(/C=C2\C(=O)Nc3ccc(F)cc32)c1C [SUNITINIB]	> 8

System: NCI-H2126;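 further: growth inhibition of the cancer cell line, determined with a cell viability readout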
Assay: cells
Format: functional, cell-based, Homo sapiens
Conditions: Homo sapiens, NCI-H2126
Description: SANGER: Inhibition of human NCI-H2126 cell growth in a cell viability assay.

SMILES	IC50 [µM]
CCN(CC)CCNC(=O)c1c(C)[nH]c(/C=C2\C(=O)Nc3ccc(F)cc32)c1C [SUNITINIB]	> 8

System: NCI-H226;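 further: cell viability read-out used to gauge growth inhibition of the cells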
Assay: cells
Format: functional, cell-based, Homo sapiens
Conditions: Homo sapiens, NCI-H226
Description: SANGER: Inhibition of human NCI-H226 cell growth in a cell viability assay.

SMILES	IC50 [µM]
CCN(CC)CCNC(=O)c1c(C)[nH]c(/C=C2\C(=O)Nc3ccc(F)cc32)c1C [SUNITINIB]	> 8
